Results: patent US10526580B2, “Differentiated cell population of endothelial cells derived from human pluripotent stem cells, composition, system, kit and uses thereof” (BIOCANT-ASSOCIAÇÃO DE TRANSFERÊNCIA DE TECNOLOGIA, priority 2012, dated 2020)

How the values were obtained:
hESC-derived ECs = experiment: 7-Cyclo in PDMS microfluidic system, static or flow (morphology, qRT-PCR, ELISA); assay type: cell-based, human
Procedure: For the 7-cyclo studies the flow experiments were carried out in a microfluidic system developed by us. The microfluidic device was obtained using a cylindrical mold of 20 Gauge. Polydimethylsiloxane (PDMS) (Sylgard 184 Silicone elastomere base) was mixed at a 10:1 ratio (w/w) with curing agent (Sylgard 184 Silicon Elastomer Curing Agent) and the solution was poured onto a mold (20 gauge needle laid on a plastic dish) and cured at 80° C. for about 3 h. The microchannel was cut to 0.5 cm length (900 μm inner diameter) and treated with Plasma Clean (Electronic Diener Femto Plasma Surface Technology version 5) for 2 min with argon gas (2 mBar) before immersing it in a solution of 0.1% gelatin. HESC-derived ECs (20×10^6 cells/mL) or HUAECs were seeded on PDMS microchannels (3.18 μL cell suspension per channel) devices and grown until confluence. Using a programmed IBIDI pump with positive pressure, the cell monolayer was perfused with EGM-2 medium for 7 days; shear stress of 20 dyne/cm2 (. After 7 days the flow was stopped, the cells imaged, and then stained or collected for posterior gene analysis. Medium was collected for ELISA assays. In some experiments, cells were cultured in medium supplemented with 1 μM 7-cyclo (Sigma) for an additional time of 24 h, under shear stress. Static controls were carried out in the microfluidic system but without flow.
(§1) Evaluation of the levels of vascular injury by specific markers. ELISA kits analyzed supernatants collected from the shear stress experiments for vWF and vWFpp (Gen-Probe GTI Diagnostic) and ADMA (Enzo Life Sciences), according to manufacturer's recommendations.
To evaluate the effects of 7-Cyclo in flow conditions, hESC-derived ECs were cultured in a poly(dimethylsiloxane) (PDMS) microfluidic system with cylindrical channels for 7 days at 20 dyne/cm2 (FIG. 5A). ECs were able to form a confluent monolayer in the entire inner surface of the channel after 48 h. At day 7, cells were exposed to EGM-2 medium supplemented with 1 μM of 7-Cyclo for 24 h, and finally analyzed at morphological, genetic and secretion levels. […] Importantly, hESC-derived ECs cultured under flow conditions in the presence of 7-Cyclo secrete higher levels of ADMA (2.5 fold) and vWFpp:vWF (1.6 fold) than without the drug, and significant higher levels of ADMA than HUAECs.

HUAECs = experiment: 7-Cyclo in PDMS microfluidic system, static or flow (qRT-PCR, ELISA); assay type: cell-based, human; conditions: flow 20 dyne/cm2, 1 μM for 24 h
Procedure: For the 7-cyclo studies the flow experiments were carried out in a microfluidic system developed by us. The microfluidic device was obtained using a cylindrical mold of 20 Gauge. Polydimethylsiloxane (PDMS) (Sylgard 184 Silicone elastomere base) was mixed at a 10:1 ratio (w/w) with curing agent (Sylgard 184 Silicon Elastomer Curing Agent) and the solution was poured onto a mold (20 gauge needle laid on a plastic dish) and cured at 80° C. for about 3 h. The microchannel was cut to 0.5 cm length (900 μm inner diameter) and treated with Plasma Clean (Electronic Diener Femto Plasma Surface Technology version 5) for 2 min with argon gas (2 mBar) before immersing it in a solution of 0.1% gelatin. […]
as §1
To evaluate the effects of 7-Cyclo in flow conditions, hESC-derived ECs were cultured in a poly(dimethylsiloxane) (PDMS) microfluidic system with cylindrical channels for 7 days at 20 dyne/cm2 (FIG. 5A). […] At day 7, cells were exposed to EGM-2 medium supplemented with 1 μM of 7-Cyclo for 24 h, and finally analyzed at morphological, genetic and secretion levels. […]

[1] = tested on: kinase activity of HUAECs; experiment: Kinase-Glo Luminescence Kinase Assay of cells; assay type: cell-based, human; conditions: 24 h incubation, 0.1 or 1 μM
Procedure: (§2) The kinase activity of the hESC-derived ECs and HUAECs was assessed by luminescence (signal is inversely correlated with the level of kinase activity) in the absence or presence of the compound 7-Cyclo (FIG. 6D).
(§3) The kinase activity of cells was measured by a Kinase-Glo® Luminescence Kinase Assay (Promega). Cells incubated with 7-Cyclo for 24 h were treated with the kinase reagent from the kit and luminescence acquired using a Spectra Max Gemini luminometer. The luminescence signal is correlated with the amount of ATP present and its inversely correlated with the amount of kinase activity.

[2] = tested on: kinase activity of hESC-derived ECs; experiment: Kinase-Glo Luminescence Kinase Assay of cells; assay type: cell-based, human; conditions: 24 h incubation, 0.1 or 1 μM
Procedure: as §2, §3

[3] = tested on: HUVECs and lymphatic EC tube formation; conditions: 1 μM, in vitro; cited from earlier work
[4] = tested on: hESC-derived ECs versus HUAECs; experiment: High-throughput screening of LOPAC library, PrestoBlue cell viability, hESC-derived ECs versus HUAECs; assay type: cell-based, human; conditions: LOPAC screen, 4.5 μM, 4 days, PrestoBlue assay
Procedure: High-throughput screening (HTS). HUAECS (Lonza) and hESC-derived ECs were cultured in EGM-2 medium while human anterior cruciate ligament cells (ACL cells) were cultured in Dulbecco's modified Eagle's medium (DMEM; PAA) supplemented with 10% FBS, 0.2 mM ascorbic acid 2-phosphate magnesium salt (Sigma Aldrich), […] streptomycin and 100 U/mL penicillin (Life Technologies). ACL cells were isolated from patients that have signed an informed consent form, in compliance with the Dutch legislation. The ethical committee of Medisch Spectrum Twente Hospital approved the collection.
The LOPAC library (Sigma-Aldrich) was used to screen embryonic endothelial-specific cytotoxic compounds. The compounds were solubilized in DMSO. The final compound concentration used in the screen was 4.5 μM in a final volume of 200 μL per well (96-well plate). HUAECs, hESC-derived EC and ACL cells were seeded at 16,000 cells/well (HUAECs and hESC-derived ECs) and 5,000 cells/well (ACL cells) and allowed to reach near confluence (approximately two days). After two days, medium was exchanged and test compounds and controls were added to the 96-well plates (all wells contained 0.25% (v/v) DMSO). After 4 days of incubation, cell viability was assessed using a PrestoBlue (Invitrogen) assay. This assay is based on a resazurin-based solution that indicates the reducing power of living cells and therefore measures indirectly their number. For each measurement, cell medium was removed and the PrestoBlue solution (10%) was added for 3 h at 37° C. upon which the absorbance was measured at 560-590 nm.
Disruption of vascular development has been directly correlated with prenatal loss, malformations and neurodevelopmental problems^41-44. […] The library was screened at a single dosage of 4.5 μM in a volume of 200 μL per well of EGM-2 medium, containing 0.25% DMSO (v/v). […] Six compounds (danazol, chlorpromazine hydrochloride, ellipticine, 3′,4′-dichlorobenzamil, fluphenazine dihydrochloride and 7-cyclopentyl-5-(4-phenoxy)phenyl-7H-pyrrolo[2,3-d]pyrimidin-4-ylamine) affected cell viability in both cells by a difference of 20% (FIG. 4B). The six compounds belong to different classes: cell cycle, ion pumps, dopamine pathway, phosphorylation and hormone signaling. The compounds selected from the primary screen were then tested against hESC-derived ECs and HUAECs at eight different concentrations to obtain a dose-response curve (FIG. 4C and FIG. 14).

Xenopus embryos = conditions: 20 μM; cited from earlier work
[5] = tested on: hESC-derived ECs versus ACL cells; experiment: High-throughput screening of LOPAC library, PrestoBlue cell viability, hESC-derived ECs versus ACL cells; assay type: cell-based, human; conditions: LOPAC screen, 4.5 μM, 4 days of incubation, PrestoBlue assay
Outline: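 HUAECs and hESC-derived ECs in EGM-2 and ACL cells in DMEM/10% FBS were grown to near confluence, then exposed for 4 days to single-dose compound at 4.5 μM (0.25% DMSO). Viability was read by PrestoBlue (10%, 3 h, 37 °C) as absorbance at 560-590 nm. Hits were retested at eight concentrations for dose-response.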

[6] = flow 20 dyne/cm2, 1 μM for 24 h, versus static conditions
[7] = flow conditions, 1 μM for 24 h, ELISA

cell morphology (hESC-derived ECs; flow 20 dyne/cm2, 1 μM for 24 h): significant alterations
expression of DDAH1 and DDAH2 (hESC-derived ECs; [6]): statistically lower levels
expression of inflammatory genes ICAM-1, E-selectin, HO-1 and eNOS (hESC-derived ECs; [6]): statistically higher levels
secreted ADMA versus without the drug (hESC-derived ECs; [7]): 2.5 fold
secreted vWFpp:vWF versus without the drug (hESC-derived ECs; [7]): 1.6 fold
down-regulation of DDAH-1 and DDAH-2 (HUAECs): No down-regulation
SMILES: Nc1ncnc2c1c(-c1ccc(Oc3ccccc3)cc1)cn2C1CCCC1 [7-Cyclo, 7-cyclopentyl-5-(4-phenoxy)phenyl-7H-pyrrolo[2,3-d]pyrimidin-4-ylamine]
expression of inflammatory genes (HUAECs): only ICAM-1 and eNOS genes were up-regulated
kinase activity versus time zero (luminescence) [1]: no significant decrease
kinase activity versus time zero (luminescence) [2]: decreased significantly
tube formation [3]: inhibits
difference in cell viability between hESC-derived ECs and HUAECs [4]: 20%
effect on vasculature of Xenopus embryos (Xenopus embryos): interfere with angiogenic sprouting and disrupt blood vessel formation
Differences (%) in cell viability (hESC-Derived ECs versus ACL cells) [5]: 65.4%
